Several values for one entry are separate records, joined by “and”; a condition that tells them apart may be missing. Equal entries are not always repeated.
Molecular target: Isoform Tau-F of Microtubule-associated protein tau (Human, UniProt P10636)
Assay: Tau Protein Assay
Details: pH 7.4
Method: The Tau content of fractions was determined by dot blot analysis using nitrocellulose membranes (0.2 μm porosity) as described previously [Cisek et al., Biophys. Chem., 170:25-33]. The membranes were blocked in 5% nonfat dry milk dissolved in blocking buffer (100 mM Tris-HCl, pH 7.4, and 150 mM NaCl) for 1 h and then incubated with primary antibody Tau5 at 1:5000 dilution for 2 h. Membranes were then washed three times with blocking buffer and incubated with horseradish peroxidase-linked secondary antibody for 2 h. After washing another three times with blocking buffer, membranes were imaged using the Enhanced Chemiluminescence Western blotting Analysis System (GE Healthcare, Buckinghamshire, UK) recorded on an Omega 12iC Molecular Imaging System and quantified using Ultra-Quant software (UltraLum, Claremont, CA, USA).

Isoform Tau-F of Microtubule-associated protein tau, sequence (P10636 as listed by the source): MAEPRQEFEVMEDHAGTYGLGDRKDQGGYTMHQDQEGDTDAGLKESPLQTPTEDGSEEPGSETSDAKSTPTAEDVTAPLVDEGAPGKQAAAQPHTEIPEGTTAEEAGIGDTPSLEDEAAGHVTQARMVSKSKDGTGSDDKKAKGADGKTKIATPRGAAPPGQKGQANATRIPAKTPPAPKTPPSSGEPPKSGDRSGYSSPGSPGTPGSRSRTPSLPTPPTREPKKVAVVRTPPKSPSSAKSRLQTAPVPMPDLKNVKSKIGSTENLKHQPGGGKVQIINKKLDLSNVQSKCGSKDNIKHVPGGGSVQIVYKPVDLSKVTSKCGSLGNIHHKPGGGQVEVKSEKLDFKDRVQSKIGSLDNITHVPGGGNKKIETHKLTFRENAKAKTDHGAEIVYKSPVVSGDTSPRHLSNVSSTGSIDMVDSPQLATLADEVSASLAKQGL

IC50 | SMILES
0.17 µM | O=C(O)CCN1C(=O)/C(=C/c2ccc(-c3ccc(-c4ccccc4)cc3)o2)SC1=S [Rhodanines, 20A]
0.17 µM | O=C(O)CCN1C(=O)/C(=C/c2ccc(-c3ccc(-c4ccc(C(=O)O)o4)cc3)o2)SC1=S [Rhodanines, 21A]
0.21 µM | O=C(O)CCCCN1C(=O)/C(=C/c2ccc(-c3ccc(-n4cccc4)cc3)o2)SC1=S [Rhodanines, 22A]
0.23 µM | O=C(O)CCCN1C(=O)/C(=C/c2ccc(-c3ccc(-n4cccc4)cc3)o2)SC1=S [Rhodanines, 23A]
0.24 µM | O=C(O)CCN1C(=O)/C(=C/c2ccc(-c3ccc(-n4cccc4)cc3)o2)SC1=S [Rhodanines, 24A]
0.24 µM | O=C(O)CCCCN1C(=O)/C(=C/c2ccc(-c3ccc(-c4ccccc4)cc3)o2)SC1=S [Rhodanines, 25A]
0.26 µM | O=C(O)CCCCN1C(=O)/C(=C/c2ccc(-c3ccc(-c4ccc(C(=O)O)o4)cc3)o2)SC1=S [Rhodanines, 26A]
0.47 µM | O=C(O)CCN1C(=O)/C(=C/c2ccc(-c3cccc(Cl)c3)o2)SC1=S [Rhodanines, 28A]
0.58 µM | O=C(O)Cc1ccc(CN2C(=O)/C(=C/c3ccc(-c4ccc(-c5ccc(C(=O)O)o5)cc4)o3)SC2=S)cc1 [Rhodanines, 30A]
0.65 µM | O=C(O)CCN1C(=O)/C(=C/c2ccc(-c3ccccc3Cl)o2)SC1=S [Rhodanines, 31A]
0.73 µM | O=C(O)Cc1ccc(CN2C(=O)/C(=C/c3ccc(-c4ccc(-c5ccccc5)cc4)o3)SC2=S)cc1 [Rhodanines, 33A]
0.75 µM | O=C(O)c1ccc(-c2ccc(-c3ccc(/C=C4\SC(=S)N(CCc5c[nH]cn5)C4=O)o3)cc2)o1 [Rhodanines, 34A]
0.78 µM | O=C(O)Cc1ccc(CN2C(=O)/C(=C/c3ccc(-c4ccc(-n5cccc5)cc4)o3)SC2=S)cc1 [Rhodanines, 35A]
0.94 µM | O=C(O)CCCN1C(=O)/C(=C/c2ccc(-c3ccc(-c4ccccc4)cc3)o2)SC1=S [Rhodanines, 37A]
1.22 µM | O=C(O)CCCN1C(=O)/C(=C/c2ccc(-c3cccc(Cl)c3)o2)SC1=S [Rhodanines, 40A]
1.4 µM | O=C1/C(=C/c2ccc(-c3ccc(-c4ccccc4)cc3)o2)SC(=S)N1Cc1nc2ccccc2[nH]1 [Rhodanines, 41A]
1.97 µM | O=C(O)Cc1ccc(CN2C(=O)/C(=C/c3ccc(-c4cccc(Cl)c4)o3)SC2=S)cc1 [Rhodanines, 44A]
5.03 µM | O=C(O)CCCN1C(=O)/C(=C/c2cccc(-c3ccc(-c4ccccc4)cc3)n2)SC1=S [Rhodanines, 51B]
5.03 µM | O=C(O)CCCCN1C(=O)/C(=C/c2cccc(-c3ccc(-c4ccccc4)cc3)n2)SC1=S [Rhodanines, 52B]
7.7 µM | O=C1/C(=C/c2ccc(-c3ccc(-c4ccccc4)cc3)o2)SC(=S)N1CCc1c[nH]cn1 [Rhodanines, 54A]
9.38 µM | O=C1/C(=C/c2cccc(-c3ccc(-c4ccccc4)cc3)c2)SC(=S)N1CCc1c[nH]cn1 [Rhodanines, 57B]
12.4 µM | O=C1/C(=C/c2ccc(-c3ccc(-c4ccccc4)cc3)cc2)SC(=S)N1CCc1c[nH]cn1 [Rhodanines, 58B]
19.6 µM | O=C(O)CCN1C(=O)/C(=C/c2ccc(-c3ccc(-c4ccccc4)cc3)cc2)SC1=S [Rhodanines, 60B]
35.5 µM | O=C(O)Cc1ccc(CN2C(=O)/C(=C/c3cccc(-c4ccc(-c5ccccc5)cc4)n3)SC2=S)cc1 [Rhodanines, 62B]
117 µM | O=C1/C(=C/c2cccc(-c3ccc(-c4ccccc4)cc3)n2)SC(=S)N1CCc1c[nH]cn1 [Rhodanines, 63B]
146 µM | O=C(O)Cc1ccc(CN2C(=O)/C(=C/c3cccc(-c4ccc(-c5ccccc5)cc4)c3)SC2=S)cc1 [Rhodanines, 64B]

Further lines, the compound ahead of its results:

SMILES | IC50
CCC(/C=C1\Sc2ccc(OC)cc2N1CCO)=C\c1sc2ccc(OC)cc2[n+]1CCO | 0.29 µM
N=c1ccc2nc3ccc(N)cc3sc-2c1 | > 10 µM
C[N+](C)=c1ccc2nc3ccc(N)cc3sc-2c1 [AZURE A] | > 10 µM
CNc1ccc2nc3ccc(=[N+](C)C)cc-3sc2c1 [Azure B (11)] | 1.28 µM
C/N=c1\ccc2nc3ccc(N)cc3sc-2c1 [Azure C (13)] | > 10 µM
CN(C)c1ccc(N=C2C=CC(=[N+](C)C)C=C2)cc1 [Bindschedler's green (19)] | 1.09 µM
CN(C)c1ccc(C(=C2C=CC(=[N+](C)C)C=C2)c2ccc(N(C)C)cc2)cc1 [CHEBI:77181] | 0.49 µM
O=C1C=CC(=C(c2ccc(O)cc2)c2ccc(O)cc2)C=C1 [Corallin] | > 10 µM
CCCN1/C(=C/C=C/C2=[N+](CCC)c3ccccc3C2(C)C)C(C)(C)c2ccccc21 [Cyanines, 6] | 2.57 µM
C1=C2\Sc3ccccc3N2CCCC[n+]2c(sc3ccccc32)/C=C/C=C2\Sc3ccccc3N2CCCC[n+]2c(sc3ccccc32)/C=C/1 [Cyanines, 9] | 0.12 µM
N=C1C=CC(=C(c2ccc(N)cc2)c2ccc(N)cc2)C=C1 [Fuschin (17)] | > 10 µM
CN(C)c1ccc(C(=C2C=CC(=[N+](C)C)C=C2)c2ccccc2)cc1 [Malachite green (16)] | 0.52 µM
O=C(O)CC(C(=O)O)N1C(=O)/C(=C/c2ccc(-c3cccc(Cl)c3)o2)SC1=S (stereo unspecified) [Rhodanines, 27A] | 0.42 µM
O=C1/C(=C/c2ccc(-c3ccc(-n4cccc4)cc3)o2)SC(=S)N1Cc1nc2ccccc2[nH]1 [Rhodanines, 29A] | 0.54 µM
O=C1/C(=C/c2ccc(-c3cccc(Cl)c3)o2)SC(=S)N1Cc1nc2ccccc2[nH]1 [Rhodanines, 32A] | 0.67 µM
O=C(O)CN1C(=O)/C(=C/c2ccc(-c3cccc(Cl)c3)o2)SC1=S [Rhodanines, 36A] | 0.82 µM
O=C(O)CCN1C(=O)/C(=C/c2ccc(-c3cccc(Cl)c3)s2)SC1=S [Rhodanines, 38A] | 0.97 µM
O=C1/C(=C/c2ccc(-c3cccc(Cl)c3)o2)SC(=S)N1CCc1c[nH]cn1 [Rhodanines, 39A] | 1.09 µM
CC(C(=O)O)N1C(=O)/C(=C/c2ccc(-c3cccc(Cl)c3)o2)SC1=S (stereo unspecified) [Rhodanines, 42A] | 1.41 µM and 4.36 µM
O=C1/C(=C/c2ccc(-c3ccc(-n4cccc4)cc3)o2)SC(=S)N1CCc1c[nH]cn1 [Rhodanines, 43A] | 1.85 µM
O=C(O)CN1C(=O)/C(=C/c2ccc(-c3cccc(Cl)c3)o2)OC1=S [Rhodanines, 46A] | 3.1 µM
O=C(O)CN1C(=O)/C(=C/c2ccc(-c3cccc(Cl)c3)o2)NC1=S [Rhodanines, 53A] | 6.1 µM
O=C(O)CCN1C(=O)C(=CC2CCC(c3ccc(-c4ccccc4)cc3)C2)SC1=S (stereo unspecified) [Rhodanines, 55A] | 7.92 µM
O=C(O)Cc1ccc(CN2C(=O)/C(=C/c3ccc(-c4ccc(-c5ccccc5)cc4)cc3)SC2=S)cc1 [Rhodanines, 59B] | 14.8 µM
CCN1/C(=C/C(C)=C/c2sc3ccccc3[n+]2CC)Sc2ccccc21 [SMR000354813] | 0.28 µM

Reference: BindingDB's records for doi:10.1074/jbc.M113.503474 (The Ohio State University, 2013)
